Tested on: animal models of acute brain injuries such as intracranial hemorrhage
Assay: animal models of acute brain injuries such as intracranial hemorrhage
Assay type: in vivo
Text: MW189 is a novel small molecule drug candidate developed as a selective suppressor of disease- and injury-induced proinflammatory cytokine overproduction associated with destructive neuroinflammation/synaptic dysfunction cycles. […] The investigators seek to establish if these targets are modified in humans with intracranial hemorrhage.

Compound: c1ccc(-c2cc(-c3ccncc3)c(N3CCN(c4ncccn4)CC3)nn2)cc1 [MW189]
- cerebral edema: reduces cerebral edema
- functional and cognitive performance: improves functional and cognitive performance
- neuroinflammation: attenuates neuroinflammation

Source: patent US20250195517A1, “TREATMENT OF INTRACRANIAL HEMORRHAGE” (ImmunoChem Therapeutics, LLC, priority 2022, published 2025)
